# Source: patent publication US11958854B2 (Hydra Biosciences, LLC, priority 2013, dated 2024)
# Molecular target: T1, hTRPC4 (Homo sapiens, UniProt Q9UBN4)
# T1 sequence (Q9UBN4 1-977): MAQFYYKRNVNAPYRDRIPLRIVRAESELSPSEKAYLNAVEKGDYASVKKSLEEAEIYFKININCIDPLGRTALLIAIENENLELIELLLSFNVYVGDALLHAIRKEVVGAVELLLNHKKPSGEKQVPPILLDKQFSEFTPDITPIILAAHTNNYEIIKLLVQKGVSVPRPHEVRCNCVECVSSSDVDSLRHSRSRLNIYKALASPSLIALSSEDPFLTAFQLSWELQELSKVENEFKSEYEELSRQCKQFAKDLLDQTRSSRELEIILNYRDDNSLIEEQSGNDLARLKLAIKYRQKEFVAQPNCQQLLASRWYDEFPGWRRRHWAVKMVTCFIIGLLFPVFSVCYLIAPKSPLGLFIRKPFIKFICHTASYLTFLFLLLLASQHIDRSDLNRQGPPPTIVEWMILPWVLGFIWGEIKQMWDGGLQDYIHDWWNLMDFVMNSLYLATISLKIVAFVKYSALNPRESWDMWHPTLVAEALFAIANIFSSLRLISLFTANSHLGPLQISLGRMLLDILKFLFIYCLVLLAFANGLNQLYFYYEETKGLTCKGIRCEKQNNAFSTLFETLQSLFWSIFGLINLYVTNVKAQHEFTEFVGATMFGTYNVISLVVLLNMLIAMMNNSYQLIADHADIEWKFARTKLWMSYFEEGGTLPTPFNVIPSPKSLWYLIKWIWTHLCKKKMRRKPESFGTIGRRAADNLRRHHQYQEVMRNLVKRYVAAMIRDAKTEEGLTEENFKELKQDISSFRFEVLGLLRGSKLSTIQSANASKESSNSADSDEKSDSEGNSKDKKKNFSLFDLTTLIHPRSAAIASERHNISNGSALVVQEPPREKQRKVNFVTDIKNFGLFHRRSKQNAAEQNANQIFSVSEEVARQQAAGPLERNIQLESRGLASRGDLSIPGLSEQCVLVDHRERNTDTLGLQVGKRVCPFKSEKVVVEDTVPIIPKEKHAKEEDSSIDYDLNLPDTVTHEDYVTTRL
# Test: Whole-cell patch clamp, inward current (Table B)
# Type: cell-based
# Details: IC50 estimated by testing at 5 μM and 500 nM, all batches, read-out: hTRPC4 Patch Inwd (nM) (All Batches)
# Excerpt: Patch clamp experiments permit the detection of currents through the TRPC5 channel in the cell line described above. In normal whole-cell patch clamp recordings, a glass electrode is brought into contact with a single cell and a high-resistance (gigaohm) seal is established with the cell membrane. The membrane is then ruptured to achieve the whole-cell configuration, permitting control of the voltage of the cell membrane and measurement of currents flowing across the membrane using the amplifier attached to the electrode and resulting in the replacement of cytoplasm with the pipette solution. A perfusion system permits control of the extracellular solution, including the addition of blockers and activators of the current.
# TRPC5 cells were induced 20-48 hours, removed from growth plates, and replated at low density (to attain good single-cell physical separation) on glass coverslips for measurement. In some cases, cells were grown in low density overnight on glass coverslips. Patch clamp recordings were made in the whole-cell mode with a holding potential of −40 mV. Every 5 seconds, a voltage ramp was applied from −120 to +100 mV, 400 ms in duration. Currents elicited were quantified at −80 mV and +80 mV. […] The external solution consisted of 150 mM NaCl, 4.5 mM KCl, 1 mM MgCl2, 2 mM CaCl2), 10 mM HEPES, 10 mM glucose, 1 mM EGTA, pH 7.4. […] Potential blockers were tested for ability to block both inward and outward currents in the continued presence of LaCl3.
# “F” refers to agonist compounds. “ND” refers to compounds wherein the IC50 was not determined.
row,SMILES,IC50 [nM]
1,Cc1cnc(Cn2c(Oc3cccc(OC(F)(F)F)c3)nc3c2c(=O)n(CCCO)c(=O)n3C)s1 [Example 161],< 100
2,CC(C)c1ccccc1-c1nc2c(c(=O)n(CCCO)c(=O)n2C)n1Cc1ccccc1 [Example 485],< 100
3,CC(C)CCn1c(Oc2cccc(OC(F)(F)F)c2)nc2c1c(=O)n(CCCO)c(=O)n2C [Example 587],< 100

# Second part, the molecule after the results:
row,IC50 [nM],SMILES
1,< 100,Cn1c(=O)n(CCCO)c(=O)c2c1nc(Oc1cccc(OC(F)(F)F)c1)n2Cc1ccc(Cl)cc1 [Example 30]
2,< 100,CCCOc1nc2c(c(=O)n(CCCO)c(=O)n2C)n1Cc1ccc(Cl)cc1 [Example 82]
3,< 100,CCn1c(=O)n(CCCO)c(=O)c2c1nc(Oc1cccc(OC(F)(F)F)c1)n2Cc1ccccc1 [Example 145]
